{
  "source": "patent US20110091387A1",
  "about": "“METHODS AND COMPOSITIONS FOR REDUCING SKIN DAMAGE” (THE GENERAL HOSPITAL CORPORATION, priority 2007, published 2011)",
  "test_system": "RhoE promoter",
  "assay": "RhoE promoter luc2 luciferase reporter screen for inducers of RhoE expression",
  "type": "cell-based",
  "conditions": "luminescence at 24 hours; for Composite Z value (induction of RhoE expression): Table 1, two replicates per compound; for Composite Z: Table 2, two replicates",
  "method": "To isolate compounds that can activate RhoE pathway in keratinocytes and protect against UVB exposure, a robust and sensitive chemical genetics approach was developed for the identification of small molecules that induce RhoE expression. Briefly, a reporter construct was created that included the RhoE promoter operatively linked to the luc2 luciferase reporter gene (FIG. 1A). Stable cell lines were produced that expressed the reporter construct, and the cells were plated in 384 well plates at ˜10,000 cells per well. The library test compounds were added to the plated cells at two replicates per compound, and the cells were incubated with the compounds for 24 hours. Luminescence was measured at 24 hours using a plate reader. The data were analyzed using Spotfire.",
  "data": [
    {"compound": "CCOC(=O)C1(O)Oc2cc(OC)cc(OC)c2C(=O)C1c1ccccc1", "note": "(stereo not drawn) [2-ethoxycarbonyl-2-hydroxy-5,7-dimethoxyisoflavanone]", "values": [
      {"measurement": "Composite Z value (induction of RhoE expression)", "result": 2.164}
    ]},
    {"compound": "O=c1c2ccccc2oc2ccc(O)cc12", "note": "[2-hydroxyxanthone]", "values": [
      {"measurement": "Composite Z value (induction of RhoE expression)", "result": 2.2158}
    ]},
    {"compound": "COc1ccc2oc3ccccc3c(=O)c2c1", "note": "[2-methoxyxanthone]", "values": [
      {"measurement": "Composite Z value (induction of RhoE expression)", "result": 3.8383}
    ]},
    {"compound": "Cc1ccc2cc3c(ccc4ccccc43)c3c2c1CC3", "note": "[3-methylcholanthrene]", "values": [
      {"measurement": "Composite Z value (induction of RhoE expression)", "result": 2.4062}
    ]},
    {"compound": "COc1ccc(-c2cc(=O)c3ccccc3o2)cc1OC", "note": "[3′,4′-dimethoxyflavone]", "values": [
      {"measurement": "Composite Z value (induction of RhoE expression)", "result": 2.21}
    ]},
    {"compound": "O=C(/C=C/c1ccccc1)c1ccc(O)cc1", "note": "[4′-hydroxychalcone]", "values": [
      {"measurement": "Composite Z value (induction of RhoE expression)", "result": 2.8467}
    ]},
    {"compound": "COc1ccc(C(=O)/C=C/c2ccccc2)cc1", "note": "[4′-methoxychalcone]", "values": [
      {"measurement": "Composite Z value (induction of RhoE expression)", "result": 3.8036}
    ]},
    {"compound": "COc1ccccc1-c1cc(=O)c2c(OC)cccc2o1", "note": "[5,2′-dimethoxyflavone]", "values": [
      {"measurement": "Composite Z value (induction of RhoE expression)", "result": 3.0257}
    ]},
    {"compound": "COc1ccc(-c2cc(=O)c3c(OC)cc(OC)cc3o2)cc1", "note": "[5,7,4′-trimethoxyflavone]", "values": [
      {"measurement": "Composite Z value (induction of RhoE expression)", "result": 5.4102},
      {"measurement": "Composite Z", "result": 5.4102}
    ]},
    {"compound": "COc1cc(OC)c2c(=O)c(-c3ccccc3)coc2c1", "note": "[5,7-dimethoxyisoflavone]", "values": [
      {"measurement": "Composite Z value (induction of RhoE expression)", "result": 3.2977}
    ]},
    {"compound": "COc1ccc(-c2coc3cc(OC)ccc3c2=O)cc1", "note": "[7,4′-dimethoxyisoflavone]", "values": [
      {"measurement": "Composite Z value (induction of RhoE expression)", "result": 3.0721}
    ]},
    {"compound": "COc1ccccc1-c1cc(=O)c2cccc(OC)c2o1", "note": "[8,2′-dimethoxyflavone]", "values": [
      {"measurement": "Composite Z value (induction of RhoE expression)", "result": 2.7326}
    ]},
    {"compound": "COc1ccc(-c2cc(=O)c3c(O)cc(O)cc3o2)cc1", "note": "[Acacetin]", "values": [
      {"measurement": "Composite Z value (induction of RhoE expression)", "result": 3.2375}
    ]},
    {"compound": "CCCSc1ccc2nc(NC(=O)OC)[nH]c2c1", "note": "[Albendazole, reference compound]", "values": [
      {"measurement": "Composite Z value (induction of RhoE expression)", "result": 3.0534}
    ]},
    {"compound": "O=c1cc(-c2ccc(O)cc2)oc2cc(O)cc(O)c12", "note": "[Apigenin]", "values": [
      {"measurement": "Composite Z", "result": 5.3515},
      {"measurement": "Composite Z", "setting": "listed as apigenin", "result": 5.8729}
    ]},
    {"compound": "O=C1c2ccccc2-c2cccc3cccc1c23", "note": "[Benzanthrone]", "values": [
      {"measurement": "Composite Z value (induction of RhoE expression)", "result": 2.735}
    ]},
    {"compound": "CCCCOC(=O)c1ccc(O)cc1", "note": "[Butylparaben]", "values": [
      {"measurement": "Composite Z value (induction of RhoE expression)", "result": 2.6043}
    ]},
    {"compound": "CC(C)OC(=O)Nc1cccc(Cl)c1", "note": "[Chlorpropham]", "values": [
      {"measurement": "Composite Z value (induction of RhoE expression)", "result": 2.5656}
    ]},
    {"compound": "O=c1cc(-c2ccccc2)oc2cc(O)cc(O)c12", "note": "[Chrysin]", "values": [
      {"measurement": "Composite Z", "result": 5.4731}
    ]},
    {"compound": "O=c1cc(-c2ccc(O)cc2)oc2cc(O[C@@H]3O[C@H](CO)[C@@H](O)[C@H](O)[C@H]3O)cc(O)c12", "note": "[Cosmosiin]", "values": [
      {"measurement": "Composite Z value (induction of RhoE expression)", "result": 4.8646}
    ]},
    {"compound": "COc1cc(OC)c2c(=O)c(-c3ccc4c(c3)OCO4)coc2c1", "note": "[Derrustone]", "values": [
      {"measurement": "Composite Z value (induction of RhoE expression)", "result": 2.3814}
    ]},
    {"compound": "O=C(CC(=O)c1ccccc1)c1ccccc1", "note": "[Dibenzoylmethane]", "values": [
      {"measurement": "Composite Z value (induction of RhoE expression)", "result": 3.651}
    ]},
    {"compound": "COc1ccc(-c2cc(=O)c3c(O)cc(O)cc3o2)cc1O", "note": "[Diosmetin]", "values": [
      {"measurement": "Composite Z value (induction of RhoE expression)", "result": 4.5672}
    ]},
    {"compound": "O=C(Nc1ccccc1)Nc1ccccc1", "note": "[Diphenylurea]", "values": [
      {"measurement": "Composite Z value (induction of RhoE expression)", "result": 3.1382}
    ]},
    {"compound": "O=c1c2ccccc2[se]n1-c1ccccc1", "note": "[Ebselen]", "values": [
      {"measurement": "Composite Z value (induction of RhoE expression)", "result": 2.3104}
    ]},
    {"compound": "C[C@]12CC[C@H]3C(=CCc4cc(O)ccc43)[C@@H]1CCC2=O", "note": "[Equilin, reference compound]", "values": [
      {"measurement": "Composite Z value (induction of RhoE expression)", "result": 2.3429}
    ]},
    {"compound": "C=C(C)c1cc2cc(C(C)=O)c(O)cc2o1", "note": "[Euparin]", "values": [
      {"measurement": "Composite Z value (induction of RhoE expression)", "result": 2.4662}
    ]},
    {"compound": "O=c1c(-c2ccc(O)cc2)coc2cc(O)cc(O)c12", "note": "[Genistein]", "values": [
      {"measurement": "Composite Z value (induction of RhoE expression)", "result": 2.5938}
    ]},
    {"compound": "C=C1C(=O)O[C@@H]2C[C@@]3(C)CCC[C@H](C)C3=C[C@H]12", "note": "[Helenine]", "values": [
      {"measurement": "Composite Z value (induction of RhoE expression)", "result": 2.473}
    ]},
    {"compound": "O=c1cc(-c2cc(O)c(O)c(O)c2)oc2cc(O)cc(O)c12", "note": "[Hieracin]", "values": [
      {"measurement": "Composite Z value (induction of RhoE expression)", "result": 3.8448}
    ]},
    {"compound": "COc1cc(-c2coc3cc(O[C@@H]4O[C@H](CO)[C@@H](O)[C@H](O)[C@H]4O)c(OC)c(O)c3c2=O)cc(O)c1OC", "note": "[Iridin]", "values": [
      {"measurement": "Composite Z value (induction of RhoE expression)", "result": 2.7194}
    ]}
  ]
}
